Measurements as given in the METLIN SMRT retention time set (Domingo-Almenara et al. 2019).

test: gradient 5% acetonitrile 3 min, to 50% in 2 min, to 85% in 15 min, held 3 min, 100 µL/min; conditions: column: Zorbax Extend-C18 2.1 x 50 mm; eluents: water / acetonitrile, 0.1% formic acid
Procedure, shortened: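 The system's dead and dwell volumes were 40 μL and 900 μL, with a Zorbax Extend-C18 column (2.1 × 50 mm, 1.8 μm) run at 100 μL/min in water and acetonitrile containing 0.1% formic acid each. Pure standards were analyzed in mixtures of ~100 molecules by HPLC–quadrupole time-of-flight mass spectrometry in positive and negative ionization mode. Retention time was assigned from computationally picked, manually inspected adduct peaks.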

Row | SMILES | RP-LC retention time [s]
1 | CC(=O)N1C[C@@H](C(=O)NCCc2cccs2)[C@H](c2nc(C)no2)C1 | 652
2 | CCCN(CCC)C(=O)c1cc(NC(=O)C(C)C)cnc1N1CCNCC1 | 606
3 | O=C(Oc1ccccc1)N(c1ccccc1)c1ccccc1 | 1160
4 | COc1ccc(C(=O)Nc2cccn3nc(C)nc23)cc1 | 719
5 | CC(C)Cn1cc(S(=O)(=O)Nc2cc(F)ccc2F)c2cccnc21 | 994
6 | CCCNC(=O)C1CCN(c2ccc(SCC(=O)Nc3cc(OC)cc(OC)c3)nn2)CC1 | 653
7 | Cc1[nH]c(/C=C2\C(=O)Nc3ccccc32)c(C)c1CCC(=O)O | 820
8 | Cc1c(-c2ccnc(N3CCCCC3)n2)cnc2nc(-c3ccccc3)nn12 | 1180
9 | Cc1ccc(C)c(S(=O)(=O)N(C)CC2CCOCC2)c1 | 913
10 | Cc1ccnc(N2CCC(C(=O)NC3CCCC3)CC2)n1 | 628
11 | Cc1cc(S(=O)(=O)N2CCN(C3CCN(CCC(C)C)C3=O)CC2)ccc1Cl (centres undefined) | 773
12 | CCN1C(=O)COc2ccc(-c3noc(C4CC(=O)N(c5ccc(C)c(C)c5)C4)n3)cc21 (centres undefined) | 992
13 | O=C(Nc1cccc(Cl)c1)N1CCc2nc[nH]c2C1 | 597
14 | COc1cc(NC(=O)c2c(OC)cc(=O)n3c2CCCC3)cc(OC)c1 | 691
15 | CC(=O)[C@H]1CC[C@H]2[C@@H]3CCC4=CC(=O)C=C[C@]4(C)[C@H]3C(=O)C[C@]12C | 921
16 | CCCCN(C)C(=O)C1CCN(c2cncnc2N2CCCCC2)CC1 | 661
17 | CNC(=O)C1CCCN(c2nc3ncn(CC(=O)Nc4c(C)cc(C)cc4C)c(=O)c3s2)C1 (centres undefined) | 661
18 | COc1ccc(NS(=O)(=O)c2ccc(-c3c(C)noc3C)cc2)cc1Cl | 945
19 | CCOc1ccc(S(=O)(=O)N2CCCC(C(=O)Nc3ccc(OC)cc3OC)C2)cc1C (centres undefined) | 1070
20 | COc1ccc(-n2ncc3c(=O)n(Cc4nc(-c5ccc(F)cc5)no4)cnc32)cc1 | 1030

Row | SMILES | RP-LC retention time [s]
21 | COC(=O)c1cc(S(=O)(=O)N2CCCC2C(=O)Nc2ccc(C(C)C)cc2)cn1C (centres undefined) | 1020
22 | CC1=C(c2ccc(C)cc2)S(=O)(=O)N=C1N1CCCN(C(=O)NC(C)C)CC1 | 772
23 | COc1cc(NS(=O)(=O)c2ccc(NC(=O)c3ccc(Cl)cc3)cc2)nc(OC)n1 | 868
24 | CC1=C(c2ccc(Cl)cc2)S(=O)(=O)N=C1N1CCCN(C(=O)c2ccoc2)CC1 | 825
25 | O=C(CSc1nccc(-c2ccc3c(c2)OCO3)n1)N1CCOCC1 | 690
26 | Cc1cc(OCC(=O)Nc2cccc(Cl)c2C)nc(N2CCN(c3ccccc3)CC2)n1 | 949
27 | Cc1noc(-c2ccc(OC3CN(S(=O)(=O)c4c(C)nn(C)c4C)C3)cc2)n1 | 807
28 | CCC1CCCCN1CCNC(=O)C1CCCN(c2cnc3nccnc3c2)C1 (centres undefined) | 569
29 | CCOC(=O)c1cnc2nc(C)ccc2c1Nc1ccc(O)cc1 | 618
30 | CCN1CCN(CC2CCN(S(=O)(=O)Cc3cccc(Cl)c3)CC2)CC1 | 618
31 | Cc1cc(C)cc(NC(=O)N2CC(c3nc(C(C)C)nn3C)C2)c1 | 718
32 | COc1cc(NC(=O)CSC2CCc3ccccc3NC2=O)cc(OC)c1OC (centres undefined) | 719
33 | CCCn1nccc1-c1csc(S(=O)(=O)N2CCC3(CC2)OCCO3)c1 | 906
34 | Clc1ccccc1-c1nnc(CN2CCN(c3ccccn3)CC2)o1 | 602
35 | NC(=O)N1CCC(CC(=O)N2CCC([C@H]3c4ncc(Br)cc4CCc4cc(Cl)cc(Br)c43)CC2)CC1 | 1040
36 | O=C(Nc1cc(-c2ccsc2)no1)c1cccc(F)c1 | 951
37 | CCc1cc(C(=O)Nc2cccc(C#N)c2)nc2ccnn12 | 939
38 | COCc1cc(=O)n2c(n1)N(Cc1c(C)noc1C)CC2 | 626
39 | CCOC(=O)C(=O)NCC1CN(c2ccccc2)C(=O)O1 (centres undefined) | 647
40 | COc1ccc(Cl)cc1NC(=O)C1CCN(S(=O)(=O)c2ccc3c(c2)NC(=O)CO3)CC1 | 880

Row | SMILES | RP-LC retention time [s]
41 | CCC(CC)NC(=O)C1Cn2cccc2C(=O)N1 (centres undefined) | 629
42 | O=C(Cc1cccs1)Nc1nnc(SCc2ccc([N+](=O)[O-])cc2)s1 | 861
43 | CCn1nnc2cc(-c3noc(CN4C(=O)COc5ccccc54)n3)ccc21 | 845
44 | CCOC(=O)C1CCN(C(=O)C2CCCN(S(=O)(=O)c3ccc(OC)c(Cl)c3)C2)CC1 (centres undefined) | 940
45 | Cc1nc2cc(N3CCC(C(=O)Nc4ccc(Cl)cc4)CC3)cnc2nc1C | 790
46 | O=S(=O)(c1cccc(Br)c1)N1CCc2nc(-c3ccc(F)cc3)ncc2C1 | 1160
47 | CCOc1ccccc1NS(=O)(=O)c1cc2c3c(c1)CCC(=O)N3CCC2 | 548
48 | COc1cc(C)c(C)cc1S(=O)(=O)NCC1CCN(c2ncccn2)CC1 | 806
49 | CCOC(=O)c1nc(NCc2ccccc2Cl)c2c(CC)noc2n1 | 1010
50 | N#Cc1ccc(-c2nc(-c3nn(CCN4CCOCC4)c4ccccc34)no2)cc1 | 692
51 | Cc1ccc(C(=O)Nc2ccc(N3CCN(C4CCCC4)C3=O)nc2)cc1 | 888
52 | COc1ccc(-c2nc3cccnc3n2C2CCN(C(=O)NC(C)C)C2)cc1 (centres undefined) | 667
53 | CN(C)C(=O)c1cc2c(s1)CCC(C(=O)NCCc1ccncc1)C2 (centres undefined) | 563
54 | COc1cc(OC)c(NC(=O)N2CCc3nc[nH]c3C2)cc1Cl | 583
55 | C=Cc1ccc(CN2C(=O)CCC2c2nc(C)no2)cc1 (centres undefined) | 731
56 | Cc1ccccc1CC(=O)N1CCC(c2nc(C(=O)N3CCOCC3)c(C)o2)CC1 | 616
57 | COc1ccc(-c2ccc(CNc3ncn[nH]3)o2)cc1Cl | 673
58 | Cn1c(CNC(=O)C2CCC2)nc2c1CN(C(=O)c1ccc(C(F)(F)F)s1)CC2 | 656
59 | C[C@H]1CN(C(=O)CSc2ccccc2)C[C@@H]1c1nc(-c2cccnc2)no1 | 823

Next, values leading:

Row | RP-LC retention time [s] | SMILES
60 | 673 | Cc1ccn2c(Nc3ccccc3C)c(-c3cccc(O)c3)nc2c1
61 | 766 | Cc1ccc(CNC(=O)c2cc3n(n2)CC(C)(C(=O)NCc2ccccc2)N(C)C3=O)cc1 (centres undefined)
62 | 792 | CCOc1ccc(C(=O)NC(C(=O)Nc2nc3ccccc3[nH]2)C(C)CC)cc1OCC (centres undefined)
63 | 795 | CN1C(=O)c2cc(C(=O)NCCc3ccccc3)nn2CC1(C)C(=O)NC1CCCCCC1 (centres undefined)
64 | 598 | Cc1nc2ccn(Cc3cccnc3)c(=O)c2cc1C(=O)NCCc1ccco1
65 | 710 | CC1(C(=O)NCc2ccccc2)CN(S(C)(=O)=O)CC(=O)N1c1cccc(F)c1 (centres undefined)
66 | 619 | COCCN1C(=O)c2ccccc2C(C(=O)N2CCN(c3ccccn3)CC2)C1c1ccc(F)cc1 (centres undefined)
67 | 710 | Cc1cc(C)n2nc(SCC(=O)N(C)Cc3ccccc3)nc2n1
68 | 837 | Cc1cc2c(cc1S(=O)(=O)N1CCCC1C(=O)N(Cc1ccccc1)C(C)C)OCC(=O)N2 (centres undefined)
69 | 771 | CCCCNC(=O)CN1C(=O)CCn2nc(-c3cn(C)c4ccccc34)cc21
70 | 1110 | CC(C)(C)C(=O)Nc1ccc(-c2nc(-c3ccccc3)co2)cc1
71 | 1060 | CSc1ccc(CNC(=O)C2CCCN(c3ncc(-c4ccccc4)cn3)C2)cc1 (centres undefined)
72 | 771 | COC(=O)c1ccc(C(=O)NCC(O)c2cccc3ccccc23)cc1 (centres undefined)
73 | 912 | Cn1c(=O)n(-c2ccc(F)cc2)c2nc(-c3ccccc3Cl)nc(C(N)=O)c21
74 | 910 | CCCCN(CC)C(=O)c1cc2c(=O)oc3ccccc3c2n1C
75 | 808 | COCCN1CC2(CCN(S(=O)(=O)c3c(C)cc(C)cc3C)CC2)C1c1ccccc1 (centres undefined)
76 | 820 | CCN1c2ccc(C)cc2C(=O)NC12CCN(C(=O)Cc1ccccc1)CC2
77 | 1020 | Cc1ccc(CC(=O)N2CCc3cc(-c4ccno4)ccc32)cc1
78 | 788 | CCc1ccc(C2=Nc3ccccc3N(CC(N)=O)C(=O)C2)cc1
79 | 892 | Cc1ccc(-c2nc3ccc(Br)cn3c2Nc2ccccc2C)cc1
80 | 672 | CCn1c(=O)c(NCc2ccc(C)c(C)c2)nc2ccncc21
81 | 768 | Cn1ccc2ccn(CC(=O)NCc3ccc(Cl)cc3)c(=O)c21
82 | 1060 | COc1cccc(Cn2cc(C(=O)c3cc(C)ccc3C)c(=O)c3ccc(C)nc32)c1
83 | 722 | CN1c2ccccc2C(=O)NC12CCN(C(=O)NCc1cccc(F)c1)CC2
84 | 735 | COC(=O)c1ncn2c1C(=O)N(c1ccc(C)c(C)c1)C(C)(C(=O)NCc1ccccc1)C2 (centres undefined)
85 | 745 | COc1ccc(NC(=O)N2CCC3(C2)C(=O)N(C)c2ccccc23)cc1 (centres undefined)
86 | 585 | COc1ccc(-c2nc(C)cc(C)c2CNC(=O)c2ccco2)cc1
87 | 821 | COc1cccc(-n2ccn3cc(-c4ccc(F)cc4)nc3c2=O)c1
88 | 720 | COc1cccc(C(=O)CC2(O)C(=O)Nc3ccc(C)cc32)c1 (centres undefined)
89 | 806 | Cc1nn(-c2ccccc2)c2nc(N3CCCC(C(=O)NCc4ccc(F)cc4)C3)sc12 (centres undefined)
